Source: PubChem BioAssay AID1259407 (Chemical Carcinogenesis Research Information System (CCRIS), 2018)
Calls of active or inactive are those of the source. How the calls were made is not given here.

Tested on: CCRIS mutagenicity, Ames/micronucleus/aberration tests
Assay: CCRIS mutagenicity studies
[1] = Test System: AMES SALMONELLA TYPHIMURIUM, Strain/Indicator: TA98, Metabolic Activation: NONE, Method: PREINCUBATION

Measured: mutagenic call

CC(=O)Nc1ccc(-c2ccccc2)cc1
active: Test System: AMES SALMONELLA TYPHIMURIUM, Strain/Indicator: TA98, Metabolic Activation: RAT, LIVER, S-9, KC500 OR PHENOBARBITAL, Method: LIQUID SUSPENSION active; positive | Test System: AMES SALMONELLA TYPHIMURIUM, Strain/Indicator: TA100 (1,8-DNP), Metabolic Activation: MOUSE LIVER S-9, AROCLOR 1254, 10%, Method: PREINCUBATION active; positive | Test System: AMES SALMONELLA TYPHIMURIUM, Strain/Indicator: TA100 (1,8-DNP), Metabolic Activation: RAT LIVER S-9, AROCLOR 1254, 10%, Method: PREINCUBATION active; positive | Test System: AMES SALMONELLA TYPHIMURIUM, Strain/Indicator: TA100, Metabolic Activation: MOUSE LIVER S-9, AROCLOR 1254, 10%, Method: PREINCUBATION active; positive | Test System: AMES SALMONELLA TYPHIMURIUM, Strain/Indicator: TA100, Metabolic Activation: RAT LIVER S-9, AROCLOR 1254, 10%, Method: PREINCUBATION active; positive | Test System: AMES SALMONELLA TYPHIMURIUM, Strain/Indicator: TA100, Metabolic Activation: RAT, LIVER, S-9, KC500 OR PHENOBARBITAL, Method: LIQUID SUSPENSION active; positive | Test System: AMES SALMONELLA TYPHIMURIUM, Strain/Indicator: YG1029, Metabolic Activation: MOUSE LIVER S-9, AROCLOR 1254, 10%, Method: PREINCUBATION active; positive | Test System: AMES SALMONELLA TYPHIMURIUM, Strain/Indicator: YG1029, Metabolic Activation: RAT LIVER S-9, AROCLOR 1254, 10%, Method: PREINCUBATION active; positive

CC(O)CN(C)c1ccc(NN)nn1 (stereo not drawn)
active: Test System: AMES SALMONELLA TYPHIMURIUM, Strain/Indicator: TA97, Metabolic Activation: NONE, Method: STANDARD PLATE active; positive | Test System: AMES SALMONELLA TYPHIMURIUM, Strain/Indicator: TA97, Metabolic Activation: RAT, LIVER, S-9, AROCLOR 1254, Method: STANDARD PLATE active; positive | Test System: AMES SALMONELLA TYPHIMURIUM, Strain/Indicator: TA98, Metabolic Activation: NONE, Method: STANDARD PLATE active; positive | Test System: AMES SALMONELLA TYPHIMURIUM, Strain/Indicator: TA98, Metabolic Activation: RAT, LIVER, S-9, AROCLOR 1254, Method: STANDARD PLATE active; positive | Test System: AMES SALMONELLA TYPHIMURIUM, Strain/Indicator: TA102, Metabolic Activation: NONE, Method: STANDARD PLATE active; positive | Test System: AMES SALMONELLA TYPHIMURIUM, Strain/Indicator: TA1537, Metabolic Activation: NONE, Method: STANDARD PLATE active; positive | Test System: AMES SALMONELLA TYPHIMURIUM, Strain/Indicator: TA1537, Metabolic Activation: RAT, LIVER, S-9, AROCLOR 1254, Method: STANDARD PLATE active; positive | Test System: AMES SALMONELLA TYPHIMURIUM, Strain/Indicator: TA1538, Metabolic Activation: NONE, Method: STANDARD PLATE active; positive | Test System: AMES SALMONELLA TYPHIMURIUM, Strain/Indicator: TA1538, Metabolic Activation: RAT, LIVER, S-9, AROCLOR 1254, Method: STANDARD PLATE active; positive | Test System: E. COLI, Strain/Indicator: WP2 UVRA, Metabolic Activation: RAT, LIVER, S-9, AROCLOR 1254, Method: STANDARD PLATE active; positive
inactive: Test System: AMES SALMONELLA TYPHIMURIUM, Strain/Indicator: TA100, Metabolic Activation: NONE, Method: STANDARD PLATE inactive; negative | Test System: AMES SALMONELLA TYPHIMURIUM, Strain/Indicator: TA100, Metabolic Activation: RAT, LIVER, S-9, AROCLOR 1254, Method: STANDARD PLATE inactive; negative | Test System: AMES SALMONELLA TYPHIMURIUM, Strain/Indicator: TA102, Metabolic Activation: RAT, LIVER, S-9, AROCLOR 1254, Method: STANDARD PLATE inactive; negative | Test System: AMES SALMONELLA TYPHIMURIUM, Strain/Indicator: TA1535, Metabolic Activation: NONE, Method: STANDARD PLATE inactive; negative | Test System: AMES SALMONELLA TYPHIMURIUM, Strain/Indicator: TA1535, Metabolic Activation: RAT, LIVER, S-9, AROCLOR 1254, Method: STANDARD PLATE inactive; negative | Test System: E. COLI, Strain/Indicator: WP2, Metabolic Activation: RAT, LIVER, S-9, AROCLOR 1254, Method: STANDARD PLATE inactive; negative

CCCOC(=O)C=Cc1ccc([N+](=O)[O-])o1
active: [1] active; positive

O=[N+]([O-])c1ccc2c(c1)-c1ccc([N+](=O)[O-])c3cccc-2c13
inactive: Test System: AMES SALMONELLA TYPHIMURIUM, Strain/Indicator: TA1535, Metabolic Activation: NONE inactive; negative
active: Test System: AMES SALMONELLA TYPHIMURIUM, Strain/Indicator: TA97, Metabolic Activation: NONE active; positive | Test System: AMES SALMONELLA TYPHIMURIUM, Strain/Indicator: TA98(1,8-DNP6), Metabolic Activation: NONE active; positive | Test System: AMES SALMONELLA TYPHIMURIUM, Strain/Indicator: TA98(NR), Metabolic Activation: NONE active; positive | Test System: AMES SALMONELLA TYPHIMURIUM, Strain/Indicator: TA98, Metabolic Activation: NONE active; positive | Test System: AMES SALMONELLA TYPHIMURIUM, Strain/Indicator: TA100, Metabolic Activation: NONE active; positive | Test System: AMES SALMONELLA TYPHIMURIUM, Strain/Indicator: TA1537, Metabolic Activation: NONE active; positive | Test System: AMES SALMONELLA TYPHIMURIUM, Strain/Indicator: TA1538, Metabolic Activation: NONE active; positive | Test System: AMES SALMONELLA TYPHIMURIUM, Strain/Indicator: TA1978, Metabolic Activation: NONE active; positive

BrCC(Br)C1CCC(Br)C(Br)C1 (stereo not drawn)
inactive: End Point: IN VITRO CHROMOSOMAL ABERRATIONS, Test System: CHINESE HAMSTER LUNG CELLS (CHL), Metabolic Activation: NONE inactive; negative | End Point: IN VITRO CHROMOSOMAL ABERRATIONS, Test System: CHINESE HAMSTER OVARY CELLS (CHO), Metabolic Activation: NONE inactive; negative | End Point: IN VITRO CHROMOSOMAL ABERRATIONS, Test System: CHINESE HAMSTER OVARY CELLS (CHO), Metabolic Activation: RAT, LIVER, S-9, AROCLOR 1254 inactive; negative | End Point: IN VITRO CHROMOSOMAL ABERRATIONS, Test System: CHO CELLS, Metabolic Activation: NONE inactive; negative | End Point: IN VITRO CHROMOSOMAL ABERRATIONS, Test System: CHO CELLS, Metabolic Activation: RAT, LIVER, S-9, AROCLOR 1254 inactive; negative | Test System: AMES SALMONELLA TYPHIMURIUM, Strain/Indicator: TA98, Metabolic Activation: HAMSTER, LIVER, S-9, AROCLOR 1254 (10%), Method: PREINCUBATION inactive; negative | [1] inactive; negative | Test System: AMES SALMONELLA TYPHIMURIUM, Strain/Indicator: TA98, Metabolic Activation: RAT, LIVER, S-9, AROCLOR 1254 (10%), Method: PREINCUBATION inactive; negative | Test System: AMES SALMONELLA TYPHIMURIUM, Strain/Indicator: TA100, Metabolic Activation: HAMSTER, LIVER, S-9, AROCLOR 1254 (10%), Method: PREINCUBATION inactive; negative | Test System: AMES SALMONELLA TYPHIMURIUM, Strain/Indicator: TA100, Metabolic Activation: NONE, Method: PREINCUBATION inactive; negative | Test System: AMES SALMONELLA TYPHIMURIUM, Strain/Indicator: TA100, Metabolic Activation: RAT, LIVER, S-9, AROCLOR 1254 (10%), Method: PREINCUBATION inactive; negative | Test System: AMES SALMONELLA TYPHIMURIUM, Strain/Indicator: TA1535, Metabolic Activation: HAMSTER, LIVER, S-9, AROCLOR 1254 (10%), Method: PREINCUBATION inactive; negative | Test System: AMES SALMONELLA TYPHIMURIUM, Strain/Indicator: TA1535, Metabolic Activation: NONE, Method: PREINCUBATION inactive; negative | Test System: AMES SALMONELLA TYPHIMURIUM, Strain/Indicator: TA1535, Metabolic Activation: RAT, LIVER, S-9, AROCLOR 1254 (10%), Method: PREINCUBATION inactive; negative | Test System: AMES SALMONELLA TYPHIMURIUM, Strain/Indicator: TA1537, Metabolic Activation: HAMSTER, LIVER, S-9, AROCLOR 1254 (10%), Method: PREINCUBATION inactive; negative | Test System: AMES SALMONELLA TYPHIMURIUM, Strain/Indicator: TA1537, Metabolic Activation: NONE, Method: PREINCUBATION inactive; negative | Test System: AMES SALMONELLA TYPHIMURIUM, Strain/Indicator: TA1537, Metabolic Activation: RAT, LIVER, S-9, AROCLOR 1254 (10%), Method: PREINCUBATION inactive; negative
active: End Point: IN VITRO CHROMOSOMAL ABERRATIONS, Test System: CHINESE HAMSTER LUNG CELLS (CHL), Metabolic Activation: RAT, LIVER, S-9, KC-400 active; positive (structural changes) | Test System: MOUSE LYMPHOMA, Strain/Indicator: L5178Y (TK+/TK-), Metabolic Activation: NONE, Method: SUSPENSION/PLATE active; positive
